This note sets out measurements from publication PMC5936891, “A focused library synthesis and cytotoxicity of quinones derived from the natural product bolinaquinone” (Royal Society Open Science, 2018).

By inhibition is commonly meant the percentage by which the read-out fell short of the control. As usually defined, the melting point is the temperature, or range, at which the solid turns liquid.

Entries after “also recorded” stand apart in the source; their conditions may differ.

Data set [1] relates to BE2-C (neuroblastoma). The data set is described as follows: MTT in vitro growth inhibition assay, BE2-C. Type of data set: cell-based. Particulars: Homo sapiens, BE(2)-C, 25 µM of drug, 72 h, read-out: Percentage of Cell Growth Inhibition BE2-C.
Data set [2] relates to U87 (glioblastoma). The data set is described as follows: MTT in vitro growth inhibition assay, U87. The data set is classed as cell-based. The conditions noted are these: 25 µM of drug, 72 h, read-out: Percentage of Cell Growth Inhibition U87.
Data set [3] concerns H460 (lung carcinoma). The experiment in a line: MTT in vitro growth inhibition assay, H460. The data set is classed as cell-based. Particulars: Homo sapiens, NCI-H460, 25 µM of drug, 72 h, read-out: Percentage of Cell Growth Inhibition H460.
For data set [4], the system named is SJ-G2 (glioblastoma). The data set is described as follows: MTT in vitro growth inhibition assay, SJ-G2. Type of data set: cell-based. The conditions noted are these: 25 µM of drug, 72 h, read-out: Percentage of Cell Growth Inhibition SJ-G2.
Data set [5] has as its system MIA (pancreatic carcinoma). The data set is described as follows: MTT in vitro growth inhibition assay, MIA. Type of data set: cell-based. The conditions noted are these: 25 µM of drug, 72 h, read-out: Percentage of Cell Growth Inhibition MIA.
Data set [6] concerns HT29 (colon carcinoma). The experiment in a line: MTT in vitro growth inhibition assay, HT29. The data set is classed as cell-based. Particulars: Homo sapiens, HT-29, 25 µM of drug, 72 h, read-out: Percentage of Cell Growth Inhibition HT29.
In data set [7] the test system is MCF10A (normal breast cell line). The data set is described as follows: MTT in vitro growth inhibition assay, MCF10A. The data set is classed as cell-based. Particulars: Homo sapiens, MCF-10A, 25 µM of drug, 72 h, read-out: Percentage of Cell Growth Inhibition MCF10A.
The test system of data set [8] is A2780 (ovarian carcinoma). The experiment in a line: MTT in vitro growth inhibition assay, A2780. Type of data set: cell-based. Particulars: Homo sapiens, 25 µM of drug, 72 h, read-out: Percentage of Cell Growth Inhibition A2780.
The test system of data set [9] is MCF-7 (breast carcinoma). The data set is described as follows: MTT in vitro growth inhibition assay, MCF-7. Type of data set: cell-based. The conditions noted are these: Homo sapiens, MCF7, 25 µM of drug, 72 h, read-out: Percentage of Cell Growth Inhibition MCF-7.
Data set [10] relates to Du145 (prostate carcinoma). The experiment in a line: MTT in vitro growth inhibition assay, Du145. Particulars: Homo sapiens, DU-145, 25 µM of drug, 72 h, read-out: Percentage of Cell Growth Inhibition Du145. Type of data set: cell-based.
For data set [11], the system named is panel of 11 cancer cell lines and one normal cell line. The experiment in a line: Cytotoxicity across the whole cell line panel (MTT). The data set is classed as cell-based. Particulars: for activity at the initial screening concentration (to proceed to GI50 determination): 25 µM single dose. An excerpt: With the desired bolinaquinone analogues 12–43 in hand, we examined their cytotoxicity against a panel of 11 tumour cell lines: HT29 (colon carcinoma), U87 and SJ-G2 (glioblastoma), MCF-7 (breast carcinoma), A2780 (ovarian carcinoma), H460 (lung carcinoma), A431 (skin carcinoma), Du145 (prostate carcinoma), BE2-C (neuroblastoma), MIA (pancreatic carcinoma), SMA (spontaneous murine astrocytoma) and a normal breast cell line (MCF10A). The inclusion of the MCF-10A cell line allowed a determination of a crude measure of relative toxicity while noting that the ultimate arbiter of toxicity requires in vivo evaluation. All analogues were initially screened at a 25 µM drug concentration.
Stock solutions were prepared as follows and stored at −20°C: drugs were stored as 40 mM solutions in DMSO. All cell lines were cultured in a humidified atmosphere 5% CO2 at 37°C. The cancer cell lines were maintained in Dulbecco's modified Eagle's medium (DMEM) (Trace Biosciences, Australia) supplemented with 10% fetal bovine serum, 10 mM sodium bicarbonate, penicillin (100 IU ml^−1), streptomycin (100 µg ml^−1) and glutamine (4 mM). The non-cancer MCF10A cell line was cultured in DMEM:F12 (1 : 1) cell culture media, 5% heat-inactivated horse serum, supplemented with penicillin (50 IU ml^−1), streptomycin (50 µg ml^−1), 20 mM Hepes, L-glutamine (2 mM), epidermal growth factor (20 ng ml^−1), hydrocortisone (500 ng ml^−1), cholera toxin (100 ng ml^−1) and insulin (10 ug ml^−1).
Cells in logarithmic growth were transferred to 96-well plates. Cytotoxicity was determined by plating cells in duplicate in 100 µl medium at a density of 2500–4000 cells per well. On day 0 (24 h after plating), when the cells were in logarithmic growth, 100 μl of medium with or without the test agent was added to each well. After 72 h, drug exposure growth inhibitory effects were evaluated using the MTT (3-[4,5-dimethylthiazol-2-yl]-2,5-diphenyl-tetrazolium bromide) assay and the absorbance read at 540 nm. Percentage growth inhibition was determined at a fixed drug concentration of 25 µM. A value of 100% is indicative of complete cell growth inhibition. Those analogues showing appreciable percentage growth inhibition underwent further dose–response analysis allowing for the calculation of a GI50 value. This value is the drug concentration at which cell growth is 50% inhibited based on the difference between the optical density values on day 0 and those at the end of drug exposure.

Data set [12] relates to A431 (skin carcinoma). The experiment in a line: MTT in vitro growth inhibition assay, A431. Particulars: Homo sapiens, A-431, 25 µM of drug, 72 h, read-out: Percentage of Cell Growth Inhibition A431. Type of data set: cell-based.
Data set [13] has as its system SMA (spontaneous murine astrocytoma). The data set is described as follows: MTT in vitro growth inhibition assay, SMA. Type of data set: cell-based. The conditions noted are these: Mus musculus, 25 µM of drug, 72 h, read-out: Percentage of Cell Growth Inhibition SMA.

In turn, `COC1=CC(=O)C(OC)=C(c2cccc(OC)c2)C1=O` [compound 19, 3-(3-Methoxyphenyl)-2,5-dimethoxycyclohexa-2,5-diene-1,4-diene] had a melting point of 72 to 75 °C. Besides, the inhibition at 25 µM in [1] stood at 70 ± 5%. Further, the inhibition at 25 µM in data set [2] is 20 ± 5%. In addition, in [3], the inhibition at 25 µM is 19 ± 1%. The inhibition at 25 µM in [4] came to 26 ± 12%. The inhibition at 25 µM in data set [5] came to 20 ± 6%. Further, the inhibition at 25 µM in [6] was 13 ± 4%. In [7], the inhibition at 25 µM is 15 ± 3%. Besides, in data set [8], the inhibition at 25 µM is 60 ± 11%. Also, in data set [9], the inhibition at 25 µM was found to be 36 ± 14%. For the same compound, the inhibition at 25 µM in [10] stood at 24 ± 6%. The “activity at the initial screening concentration (to proceed to GI50 determination)” value (“activity” below) in data set [11] is recorded as “not sufficiently active”. For the same compound, in [12], the inhibition at 25 µM turned out to be 22 ± 2%. In data set [13], the inhibition at 25 µM was found to be 40 ± 8%.
The compound `COC1=CC(=O)C(OC)=C(c2cccc(C)c2)C1=O` [compound 14, 2,5-Dimethoxy-3-m-tolylcyclohexa-2,5-diene-1,4-dione] came in with a melting point of 74 to 77 °C. Besides, the inhibition at 25 µM in [1] came to 80 ± 10%. Further, the inhibition at 25 µM in data set [2] worked out at 21 ± 7%. Moreover, in data set [3], the inhibition at 25 µM is 19 ± 2%. Further, the inhibition at 25 µM in data set [4] amounted to 38 ± 18%. In data set [5], the inhibition at 25 µM stood at 24 ± 7%. Also, in data set [6], the inhibition at 25 µM stood at 12 ± 3%. Further, the inhibition at 25 µM in [7] is 16 ± 5%. In data set [8], the inhibition at 25 µM amounted to 59 ± 13%. Besides, the inhibition at 25 µM in data set [9] was determined as 22 ± 11%. For the same compound, the inhibition at 25 µM in data set [10] was 28 ± 8%. Moreover, the “activity” value in [11] was “not sufficiently active”. In addition, in data set [12], the inhibition at 25 µM was 26 ± 5%. The inhibition at 25 µM in data set [13] was 36 ± 7%.
Consider `COC1=CC(=O)C(OC)=C(c2cccc(-c3ccccc3)c2)C1=O` [compound 28, 3-Biphenyl-3-yl-2,5-dimethoxycyclohexa-2,5-diene-1,4-dione], for which the melting point was in the range of 172 to 174 °C. The inhibition at 25 µM in data set [1] turned out to be 59 ± 23%. For the same compound, the inhibition at 25 µM in [2] amounted to 12 ± 9%. In addition, in [3], the inhibition at 25 µM is 12 ± 5%. For the same compound, the inhibition at 25 µM in data set [4] was 18 ± 3%. Besides, in [5], the inhibition at 25 µM was under 10%. Moreover, the inhibition at 25 µM in [6] worked out at 16 ± 2%. Further, in data set [7], the inhibition at 25 µM was under 10%. For the same compound, in data set [8], the inhibition at 25 µM stood at 52 ± 17%. In data set [9], the inhibition at 25 µM is 27 ± 1%. Moreover, the inhibition at 25 µM in data set [10] is 12 ± 1%. Besides, in data set [11], the “cytotoxicity spectrum across the panel” value was “broad-spectrum active” and the “activity” value is “not sufficiently active; also recorded: did not proceed to GI50 determination”. In addition, in data set [12], the inhibition at 25 µM is under 10%. For the same compound, the inhibition at 25 µM in data set [13] turned out to be 36 ± 8%.
On to `COC1=CC(=O)C(OC)=C(c2cc(OC)ccc2OC)C1=O` [compound 21, 2,5-Dimethoxy-3-(2,5-dimethoxyphenyl)cyclohexa-2,5-diene-1,4-dione], for which the inhibition at 25 µM in [1] came to 49 ± 11%; in [2] it was 14 ± 2%; in data set [3], 17 ± 7%; in [4], 16 ± 7%; in data set [5], 15 ± 2%; in data set [6], 16 ± 4%. Further, the inhibition at 25 µM in data set [7] was under 10%; in [8], 26 ± 9%; in [9], 13 ± 6%; in data set [10], 17 ± 5%; in data set [12], 12 ± 3%; in [13], 26 ± 4%. The “activity” value in data set [11] is recorded as “not sufficiently active”.
For `COC1=CC(=O)C(OC)=C(c2ccccc2OC)C1=O` [compound 18, 3-(2-Methoxyphenyl)-2,5-dimethoxycyclohexa-2,5-diene-1,4-diene], the melting point fell in the range of 162 to 164 °C. In addition, the inhibition at 25 µM in data set [1] was determined as 75 ± 9%. In [2], the inhibition at 25 µM came to 15 ± 2%. In data set [3], the inhibition at 25 µM was determined as 22 ± 2%. Also, in [4], the inhibition at 25 µM came out at 17 ± 8%. In data set [5], the inhibition at 25 µM came out at 19 ± 5%. Besides, the inhibition at 25 µM in data set [6] is 13 ± 6%. Moreover, the inhibition at 25 µM in data set [7] was 15 ± 5%. For the same compound, the inhibition at 25 µM in data set [8] is 33 ± 6%. Besides, the inhibition at 25 µM in data set [9] came out at 22 ± 9%. Moreover, the inhibition at 25 µM in data set [10] came to 14 ± 8%. Besides, the “activity” value in data set [11] is reported as “not sufficiently active”. The inhibition at 25 µM in data set [12] is 28 ± 4%. Further, the inhibition at 25 µM in data set [13] turned out to be 34 ± 8%.
With `COC1=CC(=O)C(OC)=C(c2cc3ccccc3s2)C1=O` [compound 26, 3-(Benzo[b]thiophen-2-yl)-2,5-dimethoxycyclohexa-2,5-diene-1,4-dione], the melting point was 205 to 207 °C. In data set [1], the inhibition at 25 µM worked out at 72 ± 3%. Further, in data set [2], the inhibition at 25 µM was found to be 42 ± 5%. For the same compound, the inhibition at 25 µM in data set [3] came out at 49 ± 8%. Also, the inhibition at 25 µM in [4] is 42 ± 3%. Besides, the inhibition at 25 µM in [5] came out at 59 ± 2%. For the same compound, the inhibition at 25 µM in data set [6] was found to be 70 ± 2%. For the same compound, the inhibition at 25 µM in [7] came to 65 ± 4%. Also, the inhibition at 25 µM in data set [8] is 61 ± 1%. Also, in [9], the inhibition at 25 µM was found to be 79 ± 4%. The inhibition at 25 µM in data set [10] worked out at 66 ± 5%. The “activity” value in [11] was “not sufficiently active; also recorded: did not proceed to GI50 determination”. The inhibition at 25 µM in data set [12] came to 75 ± 1%. Also, the inhibition at 25 µM in [13] came to 60 ± 3%.
For `CCCCc1ccc(C2=C(OC)C(=O)C=C(OC)C2=O)cc1` [compound 15, 3-(4-Butylphenyl)-2,5-dimethoxycyclohexa-2,5-diene-1,4-dione], the inhibition at 25 µM in [1] was 41 ± 18%; in [2], 10 ± 7%; in data set [3], under 10%; in data set [4] it was 12 ± 6%; in data set [5] it was under 10%; in data set [6], under 10%. In addition, the inhibition at 25 µM in data set [7] was under 10%; in [8], 39 ± 14%; in [9], 19 ± 7%; in data set [10], under 10%; in [12] it was under 10%; in data set [13] it was 25 ± 10%. The “activity” value in data set [11] is “not sufficiently active”.
